Target: CXCR7 (Homo sapiens (Human), UniProt P25106)
Assay: PathHunter CHO-K1 CXCR7 b-arrestin assay (agonistic activity)
Format: cell-based
Conditions: PathHunter CHO-K1 CXCR7 b-arrestin cell line
Outline: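 CHO-K1 cells co-expressing ProLink-tagged CXCR7 and EA-fused β-arrestin 2 (enzyme fragment complementation); compounds added in HBSS/20 mM HEPES/0.2% BSA after 3–4 h in OPTIMEM, 90 min at 37 °C. Chemiluminescent β-gal signal read after 1 h detection at room temperature; EC50 reported as geometric mean of several measurements.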

Sequence of CXCR7 (P25106 whole entry): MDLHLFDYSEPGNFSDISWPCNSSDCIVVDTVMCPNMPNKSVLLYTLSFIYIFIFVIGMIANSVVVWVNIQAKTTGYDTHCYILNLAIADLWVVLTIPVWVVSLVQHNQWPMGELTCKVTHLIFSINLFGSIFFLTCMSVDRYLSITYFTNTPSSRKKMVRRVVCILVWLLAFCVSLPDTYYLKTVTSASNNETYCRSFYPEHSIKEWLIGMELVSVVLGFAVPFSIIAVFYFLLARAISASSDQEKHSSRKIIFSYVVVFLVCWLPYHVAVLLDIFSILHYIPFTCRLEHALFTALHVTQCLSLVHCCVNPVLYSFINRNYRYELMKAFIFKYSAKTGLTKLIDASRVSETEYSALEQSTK
Sequence of CXCR7 (P32121 whole entry partner): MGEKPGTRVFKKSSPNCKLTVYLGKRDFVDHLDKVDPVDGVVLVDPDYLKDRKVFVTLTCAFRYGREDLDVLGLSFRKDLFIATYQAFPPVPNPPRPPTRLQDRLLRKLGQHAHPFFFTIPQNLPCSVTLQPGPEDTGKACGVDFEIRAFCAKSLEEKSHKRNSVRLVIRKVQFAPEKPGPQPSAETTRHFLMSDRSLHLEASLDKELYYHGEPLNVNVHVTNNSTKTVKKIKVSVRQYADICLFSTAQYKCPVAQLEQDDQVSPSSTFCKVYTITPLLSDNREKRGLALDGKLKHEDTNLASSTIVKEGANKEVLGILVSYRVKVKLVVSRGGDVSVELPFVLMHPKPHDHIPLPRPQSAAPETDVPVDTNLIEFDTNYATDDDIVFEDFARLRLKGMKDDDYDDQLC

Row | Compound | EC50
1 | Cc1cc(Cl)ccc1C(=O)Nc1cccc(CN2CCC(C(=O)NC3CCCCC3)CC2)c1 [Example 1.121] | 5 nM
2 | Cn1cnc(C(=O)Nc2cccc(CN3CCC(C(=O)NC4CCCCC4)CC3)c2)c1 [Example 1.051] | 130 nM
3 | O=C(Nc1cccc(CN2CCC(C(=O)NC3CCCCC3)CC2)c1)c1cnc2[nH]ccc2c1 [Example 1.076] | 26 nM
4 | O=C(Nc1cccc(CN2CCC(C(=O)NC3CCCCC3)CC2)c1)c1ccccc1 [Example 1.014] | 3 nM
5 | O=C(Nc1nc(CN2CCC(C(=O)NC3CCCC3)CC2)cs1)c1ccc(Cl)cc1 [Example 1.293] | 81 nM
6 | CCC(C)(C)NC(=O)C1CCN(Cc2cccc(NC(=O)c3cccc(C(F)(F)F)[n+]3[O-])c2)CC1 [Example 1.346] | 1 nM
7 | COc1ccc(OCC(=O)Nc2cccc(C(C)N3CCC(C(=O)NC4CCCCC4)CC3)c2)cc1 (racemic) [Example 1.175] | 181 nM
8 | O=C(Nc1cccc(CN2CCC(C(=O)NC3CCCCC3)CC2)c1)c1ccc(Cl)cn1 [Example 1.094] | 1 nM
9 | Cc1ccc(NC(=O)c2ccc(F)cc2)cc1CN1CCC(C(=O)NC(C)(C)C)CC1 [Example 1.300] | 1 nM
10 | Cc1cc(C)nc(C(=O)Nc2cccc(C(C)N3CCC(C(=O)NC4CCCCC4)CC3)c2)c1 (racemic) [Example 1.192] | 102 nM
11 | CC(C)(C)NC(=O)C1CCN(Cc2cccc(NC(=O)c3ccc(S(C)(=O)=O)cc3)c2)CC1 [Example 1.351] | 176 nM
12 | Cc1cc(C(=O)Nc2cccc(C(C)N3CCC(C(=O)NC4CCCCC4)CC3)c2)ncn1 (racemic) [Example 1.198] | 92 nM
13 | CC(C)(C)NC(=O)C1CCN(Cc2cccc(NC(=O)Cc3c(Cl)ccc(C(F)(F)F)c3Cl)c2)CC1 [Example 1.250] | 3 nM
14 | CC(C)(C)NC(=O)C1CCN(Cc2cccc(NC(=O)c3ccc(C(F)(F)F)cc3)c2)CC1 [Example 1.238] | 4 nM
15 | Cc1c(CN2CCC(C(=O)NC(C)(C)C)CC2)cccc1NC(=O)c1ccc(F)cc1 [Example 1.313] | 19 nM
16 | CC(C)(C)NC(=O)C1CCN(Cc2cccc(NC(=O)Cc3ccc(F)cc3Cl)c2)CC1 [Example 1.248] | 2 nM
17 | CC(C)C(=O)Nc1cccc(CN2CCC(C(=O)NC3CCCCC3)CC2)c1 [Example 1.016] | 121 nM
18 | CC(C)(C)NC(=O)C1CCN(Cc2cccc(NC(=O)C3(c4ccc(Cl)cc4)CC3)c2)CC1 [Example 1.310] | 2 nM
19 | CCC(C)(C)NC(=O)C1CCN(Cc2cccc(NC(=O)c3ccc(Cl)c[n+]3[O-])c2)CC1 [Example 4.025, 5-Chloro-1-oxy-pyridine-2-carboxylic acid {3-[4-(1,1-dimethyl-propylcarbamoyl)-piperidin-1-ylmethyl]-phenyl}amide] | 2 nM
20 | C[C@@H]1C[C@H](C(=O)NC2CCCCC2)CCN1Cc1cccc(NC(=O)c2cccc(C(F)(F)F)n2)c1 [Example 2.106, 6-Trifluoromethyl-pyridine-2-carboxylic acid [3-((2R,4R)-4-cyclohexylcarbamoyl-2-methyl-piperidin-1-ylmethyl)-phenyl]-amide or 6-trifluoromethyl-pyridine-2-carboxylic acid [3-((2S,4S)-4-cyclohexylcarbamoyl-2-methyl-piperidin-1-ylmethyl)-phenyl]-amide] | 49 nM
21 | CC(C)(C)NC(=O)C1CCN(Cc2cccc(NC(=O)c3ccc(Cl)c[n+]3[O-])c2)CC1 [Example 4.024, 5-Chloro-1-oxy-pyridine-2-carboxylic acid [3-(4-tert-butylcarbamoyl-piperidin-1-ylmethyl)-phenyl]-amide] | 3 nM
22 | O=C(Nc1cccc(CN2CCC(C(=O)NC3CCCCC3)CC2)c1)c1cc(F)cc(F)c1 [Example 1.019] | 2 nM

Row | Compound | EC50
23 | Cc1cncc(C(=O)Nc2cccc(CN3CCC(C(=O)NC4CCCC4)CC3)c2)c1 [Example 6.002, N-(3-((4-(cyclopentylcarbamoyl)piperidin-1-yl)d2methyl)phenyl)-5-methylnicotinamide] | 4 nM
24 | Cc1cc(C(=O)Nc2cccc(CN3CCC(C(=O)NC4CCCCC4)CC3)c2)ccc1F [Example 1.118] | 3 nM
25 | CC(c1cccc(NC(=O)c2ccccn2)c1)N1CCC(C(=O)NC2CCCCC2)CC1 (racemic) [Example 1.169] | 12 nM
26 | CC(C)CN(C)C(=O)C1CCN(Cc2cccc(NC(=O)c3ccc(F)cc3)c2)CC1 [Example 1.273] | 2 nM
27 | CCN(CC)c1ccc(C(=O)Nc2cccc(C(C)N3CCC(C(=O)NC4CCCCC4)CC3)c2)cn1 (racemic) [Example 1.196] | 491 nM
28 | CC(C)(C)NC(=O)C1CCN(Cc2cccc(NC(=O)Cc3c(F)ccc(Cl)c3Cl)c2)CC1 [Example 1.253] | 4 nM
29 | O=C(Cc1ccc2ccccc2c1)Nc1cccc(CN2CCC(C(=O)NC3CCCCC3)CC2)c1 [Example 1.015] | 78 nM
30 | O=C(Cc1ccccn1)Nc1cccc(CN2CCC(C(=O)NC3CCCCC3)CC2)c1 [Example 1.013] | 20 nM
31 | O=C(Nc1cccc(CN2CCC(C(=O)NC3CCCCC3)C2)c1)c1cccc(C(F)(F)F)n1 (racemic) [Example 2.099, rac-6-Trifluoromethyl-pyridine-2-carboxylic acid [3-(3-cyclohexylcarbamoyl-pyrrolidin-1-ylmethyl)-phenyl]-amide] | 60 nM
32 | CC(C)(C)NC(=O)C1CCN(Cc2cccc(NC(=O)C3COc4ccccc43)c2)CC1 (racemic) [Example 1.266] | 6 nM
33 | Cc1ccc(C(=O)Nc2cc(CN3CCC(C(=O)NC4CCCCC4)CC3)ccc2Cl)s1 [Example 1.158] | 14 nM
34 | CC(C)(C)NC(=O)C1CCN(Cc2cccc(NC(=O)c3ccc(F)cn3)c2)CC1 [Example 4.020, 5-Fluoro-pyridine-2-carboxylic acid [3-(4-tert-butylcarbamoyl-piperidin-1-ylmethyl)-phenyl]-amide] | 0.6 nM
35 | Cc1cc(C(=O)Nc2cccc(CN3CCC(C(=O)NC4CCCCC4)CC3)c2)cc(C2CCCC2)n1 [Example 1.054] | 41 nM
36 | Cc1cnc(C(=O)Nc2cccc(CN3CCC(C(=O)NC4CCCCC4)CC3)c2)cn1 [Example 1.142] | 2 nM
37 | CC(C)(C)NC(=O)C1CCN(Cc2cccc(NC(=O)c3ccc(N)cn3)c2)CC1 [Example 8.001, 5-Amino-pyridine-2-carboxylic acid [3-(4-tert-butylcarbamoyl-piperidin-1-ylmethyl)-phenyl]-amide] | 4 nM
38 | Cc1cc(C(=O)Nc2cccc(CN3CCC(C(=O)NC4CCCCC4)CC3)c2)nc(N(C)C)n1 [Example 1.088] | 24 nM
39 | O=C(Nc1cccc(CN2CCC(C(=O)NC3CCCC3)CC2)c1)c1ccc(F)cc1 [Example 1.206] | 0.9 nM
40 | Cc1ccc(C(=O)Nc2cccc(CN3CCC(C(=O)NC4CCCCC4)CC3)c2)s1 [Example 1.281] | 3 nM
41 | O=C(Nc1cccc(CN2CCC(C(=O)NC3CCCCC3)CC2)c1)c1cccc(Cl)n1 [Example 1.078] | 1 nM
42 | O=C(Nc1cccc(CN2CCC(C(=O)NC3CCCCC3)CC2)c1)c1ccsc1 [Example 1.012] | 4 nM
43 | CC(c1cccc(NC(=O)c2ccncn2)c1)N1CCC(C(=O)NC2CCCCC2)CC1 (racemic) [Example 1.193] | 23 nM
44 | Cc1cncc(C(=O)Nc2cccc(CN3CCCC(C(=O)NC(C)(C)C)CC3)c2)c1 (racemic) [Example 1.290] | 49 nM

Row | Compound | EC50
45 | CC(c1cccc(NC(=O)c2ccc(C(F)(F)F)nc2)c1)N1CCC(C(=O)NC2CCCCC2)CC1 (racemic) [Example 1.183] | 98 nM
46 | O=C(Nc1cccc(CN2CCC(C(=O)NC3CCCCC3)CC2)c1)c1cccnc1N1CCOCC1 [Example 1.073] | 371 nM
47 | O=C(Nc1cccc(CN2CCC(C(=O)NC3CCCCC3)CC2)c1)c1cc(C(F)(F)F)ccc1F [Example 1.135] | 7 nM
48 | O=C(Nc1cccc(CN2CCC(C(=O)NC3CCCCC3)CC2)c1)c1cncc2ccccc12 [Example 1.022] | 97 nM
49 | O=C(Nc1ccc(Cl)c(CN2CCC(C(=O)NC3CCCC3)CC2)c1)c1cncc(C(F)(F)F)c1 [Example 1.225] | 0.8 nM
50 | O=C(Nc1ccc(Cl)c(CN2CCC(C(=O)NC3CCCC3)CC2)c1)c1ccc(F)cn1 [Example 1.224] | 0.4 nM
51 | CCc1ccc(C(=O)Nc2cccc(CN3CCC(C(=O)NC4CCCCC4)CC3)c2)cc1 [Example 1.097] | 5 nM
52 | CC(C)(C)NC(=O)C1CCN(Cc2cccc(NC(=O)c3ccccc3C(F)(F)F)c2)CC1 [Example 1.239] | 17 nM
53 | 1-[3-(4-Chloro-benzoylamino)-benzyl]-piperidine-4-carboxylic acid (tetrahydro-pyran-4-yl)-amide [Example 2.013] | 13 nM
54 | O=C(Nc1cccc(CN2CCC(C(=O)NC3CCCCC3)CC2)c1)C1CCCCCC1 [Example 1.152] | 10 nM
55 | O=C(Nc1ccc(Cl)c(CN2CCC(C(=O)NC3CCCC3)CC2)c1)c1ccc(C(F)(F)F)cn1 [Example 1.220] | 1 nM
56 | Cc1c(F)cccc1C(=O)Nc1cccc(CN2CCC(C(=O)NC3CCCCC3)CC2)c1 [Example 1.114] | 13 nM
57 | CC(C)(C)NC(=O)C1CCN(Cc2cccc(NC(=O)c3cccc(Br)n3)c2)CC1 [Example 1.344] | 0.9 nM
58 | Cc1cncc(C(=O)Nc2cccc(CN3CCCC(C(=O)NC(C)C)CC3)c2)c1 (racemic) [Example 1.289] | 113 nM
59 | COc1ccc(C(=O)Nc2cccc(CN3CCC(C(=O)NC4CCCCC4)CC3)c2)cc1OC [Example 1.126] | 70 nM
60 | CC(C)(C)NC(=O)C1CCN(Cc2cccc(NC(=O)c3cccnn3)c2)CC1 [Example 1.322] | 4 nM
61 | CC(C)(C)NC(=O)C1CCN(Cc2cccc(NC(=O)c3ccc(Cl)cn3)c2)CC1 [Example 1.339] | 0.6 nM
62 | O=C(Nc1cccc(CN2CCC(C(=O)NC3CCCCC3)CC2)c1)c1cccnc1Cl [Example 1.066] | 44 nM
63 | O=C(Nc1cccc(CN2CCC(C(=O)NC3CCCCC3)CC2)c1)c1coc2ccccc12 [Example 1.028] | 4 nM
64 | COC(=O)c1cncc(C(=O)Nc2cccc(CN3CCC(C(=O)NC4CCCCC4)CC3)c2)c1 [Example 1.350] | 29 nM

From patent publication US9428456B2, “1-[m-carboxamido(hetero)aryl-methyl]-heterocyclyl-carboxamide derivatives” (Actelion Pharmaceuticals Ltd., priority 2012, dated 2016)
